Counter-ions that a name gives are not always drawn. The source made the active and inactive calls. The rule behind the calls is not given here.
Experiments:
HL-60 [1] = assay: Induction of sterol accumulation in human HL60 cells at 50 uM incubated for 24 hrs by GC-MS analysis; assay type: functional, cell-based
HL-60 [2] = assay: cells; conditions: Homo sapiens
Description: Cytotoxicity in human HL60 cells by MTT assay

HL-60 [3] = assay: Induction of sterol accumulation in human HL60 cells at 1 uM incubated for 24 hrs by GC-MS analysis; assay type: functional, cell-based
Mus musculus [4] = assay: Liver toxicity in C57BL/6 mouse assessed as effect on AST levels at 500 ug/day, iv dosed daily for 5 days; assay type: organism-based; conditions: in vivo, 120 h
Mus musculus [5] = assay: Acute liver toxicity in C57BL/6 mouse at 500 ug/day, iv dosed daily for 5 days; assay type: organism-based; conditions: in vivo, 120 h
HL-60 [6] = assay: Intracellular drug accumulation in human HL60 cells at 10 uM incubated for 24 hrs by GC-MS analysis; assay type: ADME, cell-based; conditions: hl-60, 24 h
Mus musculus [7] = assay: Reduction in cholesterol level in C57BL/6 mouse blood at 500 ug/day, iv dosed daily for 5 days byGC-MS analysis; assay type: functional, organism-based
[8] = Drug metabolism in human HL60 cells at 10 uM incubated for 24 hrs by GC-MS analysis; assay type: ADME, cell-based; conditions: hl-60, 24 h
HL-60 [9] = assay: Extracellular drug accumulation in human HL60 cells at 10 uM incubated for 24 hrs by GC-MS analysis; assay type: ADME, cell-based; conditions: hl-60, 24 h
Mus musculus [10] = assay: Liver toxicity in C57BL/6 mouse assessed as effect on ALT levels at 500 ug/day, iv dosed daily for 5 days; assay type: organism-based; conditions: in vivo, 120 h
HL-60 [11] = assay: Induction of sterol accumulation in human HL60 cells assessed as desmosterol accumulation at 50 uM incubated for 24 hrs by GC-MS analysis; assay type: functional, cell-based
Mus musculus [12] = assay: Induction of desmosterol accumulation in C57BL/6 mouse blood at 500 ug/day, iv dosed daily for 5 days byGC-MS analysis; assay type: functional
HL-60 [13] = assay: Induction of sterol accumulation in human HL60 cells assessed as desmosterol accumulation at 1 uM incubated for 24 hrs by GC-MS analysis; assay type: functional, cell-based
HL-60 [14] = assay: Induction of sterol accumulation in human HL60 cells at 0.1 uM incubated for 24 hrs by GC-MS analysis; assay type: functional, cell-based
HL-60 [15] = assay: Cytotoxicity in human HL60 cells at 50 uM by MTT assay; assay type: cell-based; conditions: hl-60, 50 µM
HL-60 [16] = assay: Induction of sterol accumulation in human HL60 cells assessed as holesta-7,24-dien-3beta-ol accumulation at 1 uM incubated for 24 hrs by GC-MS analysis; assay type: functional, cell-based
HL-60 [17] = assay: Induction of sterol accumulation in human HL60 cells assessed as lathosterol accumulation at 1 uM incubated for 24 hrs by GC-MS analysis; assay type: functional, cell-based
HL-60 [18] = assay: Induction of sterol accumulation in human HL60 cells assessed as zymosterol accumulation at 1 uM incubated for 24 hrs by GC-MS analysis; assay type: functional, cell-based
[19] = target: T1, Lathosterol oxidase (Homo sapiens) (UniProt O75845); assay: Inhibition of C5-desaturase in human HL60 cells assessed as compound level causing induction of sterol accumulation incubated for 24 hrs by GC-MS analysis; assay type: cell-based
T1 sequence (whole entry): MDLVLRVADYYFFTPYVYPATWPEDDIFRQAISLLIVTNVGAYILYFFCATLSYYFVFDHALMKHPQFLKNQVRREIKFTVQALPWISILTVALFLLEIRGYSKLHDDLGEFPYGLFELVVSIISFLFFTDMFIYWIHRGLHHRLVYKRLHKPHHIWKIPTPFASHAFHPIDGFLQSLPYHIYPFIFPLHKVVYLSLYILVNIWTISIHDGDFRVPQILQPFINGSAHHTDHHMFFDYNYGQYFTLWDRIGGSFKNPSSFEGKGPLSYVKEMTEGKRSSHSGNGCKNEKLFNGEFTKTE

HL-60 [20] = assay: Induction of sterol accumulation in human HL60 cells assessed as lathosterol accumulation at 50 uM incubated for 24 hrs by GC-MS analysis; assay type: functional, cell-based
HL-60 [21] = assay: Induction of sterol accumulation in human HL60 cells assessed as holesta-7,24-dien-3beta-ol accumulation at 50 uM incubated for 24 hrs by GC-MS analysis; assay type: functional, cell-based
HL-60 [22] = assay: Induction of sterol accumulation in human HL60 cells assessed as zymosterol accumulation at 50 uM incubated for 24 hrs by GC-MS analysis; assay type: functional, cell-based

| SMILES | IC50 (HL-60 [2]) | Activity (HL-60 [11]) | Activity (HL-60 [13]) | Activity (HL-60 [15]) | also measured |
| --- | --- | --- | --- | --- | --- |
| C[C@H](O)[C@H]1CC[C@H]2[C@@H]3CC=C4C[C@@H](O)CC[C@]4(C)[C@H]3CC[C@]12C | > 50 µM | – | – | – | Activity (HL-60 [1]): inactive; Activity (HL-60 [3]): inactive |
| CC(=O)O[C@H]1CC[C@@]2(C)[C@@H](CC=C3[C@@H]2CC[C@]2(C)[C@@H]([C@H](C)COC=O)CC[C@@H]32)C1 | > 50 µM | Active | Active | – | Activity (Mus musculus [4]): Non-Toxic; Activity (Mus musculus [5]): Non-Toxic; Drug uptake (HL-60 [6]): 1 µM; Activity (Mus musculus [7]): Active; Drug metabolism [8]: Metabolite_Notdetected; Drug uptake (HL-60 [9]): 2 µM; Activity (Mus musculus [10]): Non-Toxic; Activity (Mus musculus [12]): 1 µg/mL |
| CC(C)CCC[C@@H](C)[C@H]1CC[C@H]2C3=CC[C@H]4C[C@@H](O)CC[C@]4(C)[C@H]3CC[C@]12C | – | – | – | – | Activity (HL-60 [14]): inactive |
| CC(=O)O[C@H]1CC[C@@]2(C)[C@@H](CC=C3[C@@H]2CC[C@]2(C)[C@@H]([C@H](C)C(=O)N(C)CC(C)C)CC[C@@H]32)C1 | 47 µM | Active | – | – | Activity (HL-60 [3]): inactive |
| CC(=O)O[C@H]1CC[C@@]2(C)[C@@H](CC=C3[C@@H]2CC[C@]2(C)[C@@H]([C@H](C)CO)CC[C@@H]32)C1 | > 50 µM | Active | Active | – | – |
| C/C=C/C(=O)OC[C@@H](C)[C@H]1CC[C@H]2C3=CC[C@H]4C[C@@H](OC(C)=O)CC[C@]4(C)[C@H]3CC[C@]12C | 10 µM | – | Active | Toxic | – |
| CNC[C@@H](C)[C@H]1CC[C@H]2C3=CC[C@H]4C[C@@H](OC(C)=O)CC[C@]4(C)[C@H]3CC[C@]12C | 20 µM | – | Active | Toxic | Activity (HL-60 [16]): Active; Activity (HL-60 [17]): Active; Activity (HL-60 [18]): Active |
| CN1CCN(CCCN2c3ccccc3Sc3ccc(C(F)(F)F)cc32)CC1 [TRIFLUOPERAZINE HYDROCHLORIDE] | 16 µM | Active | Active | – | Activity (HL-60 [17]): Active; INH [19]: 1 to 50 µM; Activity (HL-60 [20]): Active |
| CCCC(=O)N(C)C[C@@H](C)[C@H]1CC[C@H]2C3=CC[C@H]4C[C@@H](OC(C)=O)CC[C@]4(C)[C@H]3CC[C@]12C | 13 µM | – | Active | Toxic | – |
| CCC(=O)NC[C@@H](C)[C@H]1CC[C@H]2C3=CC[C@H]4C[C@@H](OC(C)=O)CC[C@]4(C)[C@H]3CC[C@]12C | > 50 µM | Active | Active | – | – |
| CCONC(=O)[C@@H](C)[C@H]1CC[C@H]2C3=CC[C@H]4C[C@@H](OC(C)=O)CC[C@]4(C)[C@H]3CC[C@]12C | 18 µM | – | – | Toxic | Activity (HL-60 [3]): inactive |
| CC(C)=CCC[C@@H](C)[C@H]1CC[C@H]2C3=CC[C@H]4C[C@@H](O)CC[C@]4(C)[C@H]3CC[C@]12C | – | – | – | – | Activity (HL-60 [14]): inactive |
| C/C=C(\C)C(=O)OC[C@@H](C)[C@H]1CC[C@H]2C3=CC[C@H]4C[C@@H](OC(C)=O)CC[C@]4(C)[C@H]3CC[C@]12C | > 50 µM | Active | Active | – | – |
| CC(=O)O[C@H]1CC[C@@]2(C)[C@@H](CC=C3[C@@H]2CC[C@]2(C)[C@@H]([C@H](C)CN)CC[C@@H]32)C1 | > 50 µM | Active | Active | – | – |
| CC(=O)O[C@H]1CC[C@@]2(C)[C@@H](CC=C3[C@@H]2CC[C@]2(C)[C@@H]([C@H](C)C(=O)NO)CC[C@@H]32)C1 | 18 µM | – | – | Toxic | Activity (HL-60 [3]): inactive |
| CCC(=O)N(C)C[C@@H](C)[C@H]1CC[C@H]2C3=CC[C@H]4C[C@@H](OC(C)=O)CC[C@]4(C)[C@H]3CC[C@]12C | 20 µM | – | Active | Toxic | – |
| CC(=O)O[C@H]1CC[C@@]2(C)[C@@H](CC=C3[C@@H]2CC[C@]2(C)[C@@H]([C@H](C)C(=O)O)CC[C@@H]32)C1 | > 50 µM | – | – | – | Activity (HL-60 [1]): inactive; Activity (HL-60 [3]): inactive |
| CC(=O)O[C@H]1CC[C@@]2(C)[C@@H](CC=C3[C@@H]2CC[C@]2(C)[C@@H]([C@H](C)C=O)CC[C@@H]32)C1 | > 50 µM | – | – | – | Activity (HL-60 [1]): inactive; Activity (HL-60 [3]): inactive |
| CCN(CC)CCOc1ccc(C(O)(Cc2ccc(Cl)cc2)c2ccc(C)cc2)cc1 (stereo not drawn) [TRIPARANOL] | 10 µM | – | Active | Toxic | Activity (HL-60 [16]): Active; Activity (HL-60 [17]): Active; Activity (HL-60 [18]): Active |
| C[C@H](CO)[C@H]1CC[C@H]2[C@@H]3CC=C4C[C@@H](O)CC[C@]4(C)[C@H]3CC[C@]12C | > 50 µM | Active | Active | – | – |
| CC(=O)O[C@H]1CC[C@@]2(C)[C@@H](CC=C3[C@@H]2CC[C@]2(C)[C@@H]([C@H](C)COC(=O)CN(C)C)CC[C@@H]32)C1 | 21 µM | – | Active | Toxic | – |
| CC(=O)O[C@H]1CC[C@@]2(C)[C@@H](CC=C3[C@@H]2CC[C@]2(C)[C@@H]([C@H](C)C(=O)N(C)C)CC[C@@H]32)C1 | > 50 µM | – | – | – | Activity (HL-60 [1]): inactive; Activity (HL-60 [3]): inactive |
| C[C@H](CCC(=O)N(C)C)[C@H]1CC[C@H]2[C@@H]3CC=C4C[C@@H](O)CC[C@]4(C)[C@H]3CC[C@]12C | > 50 µM | Active | Active | – | – |
| CCCC(=O)NC[C@@H](C)[C@H]1CC[C@H]2C3=CC[C@H]4C[C@@H](OC(C)=O)CC[C@]4(C)[C@H]3CC[C@]12C | > 50 µM | – | Active | – | Activity (HL-60 [17]): Active; Activity (HL-60 [21]): Active; Activity (HL-60 [22]): Active |
| C[C@H](CO)[C@H]1CC[C@H]2C3=CC[C@H]4C[C@@H](O)CC[C@]4(C)[C@H]3CC[C@]12C | > 50 µM | Active | Active | – | Drug uptake (HL-60 [6]): 1 µM; Drug uptake (HL-60 [9]): 6 µM |
| CC(C)=CCC[C@@H](C)[C@H]1CC[C@H]2C3=C(CC[C@]12C)[C@@]1(C)CC[C@H](O)C[C@@H]1CC3 | – | – | – | – | Activity (HL-60 [14]): inactive |
| CONC(=O)[C@@H](C)[C@H]1CC[C@H]2C3=CC[C@H]4C[C@@H](OC(C)=O)CC[C@]4(C)[C@H]3CC[C@]12C | > 50 µM | Active | Active | – | – |
| CNC(=O)[C@@H](C)[C@H]1CC[C@H]2C3=CC[C@H]4C[C@@H](OC(C)=O)CC[C@]4(C)[C@H]3CC[C@]12C | > 50 µM | Active | Active | – | – |
| C[C@H](/C=C/c1cc[n+](C)cc1)[C@H]1CC[C@H]2C3=CC[C@H]4C[C@@H](O)CC[C@]4(C)[C@H]3CC[C@]12C.[I-] | 3 µM | – | Active | Toxic | – |
| CCN(CC)CCO[C@H]1CC[C@@]2(C)C(=CC[C@@H]3[C@@H]2CC[C@]2(C)C(=O)CC[C@@H]32)C1 | > 50 µM | – | – | – | – |
